32 compounds from patent US9663496B2, “AMPK-activating heterocyclic compounds and methods for using the same” (Rigel Pharmaceuticals, Inc., priority 2010, dated 2017) can be followed below.

This experiment deals with AMPK. Nature of the experiment: AMPK activation, enzyme-linked immunosorbent assay. The format is biochemical. The conditions noted are these: EC50 for AMPK activation, ELISA. The essentials:
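Kit-based immunoassay; compounds screened as activators; standard reagents and protocol.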
A general note: In an ELISA, binding on a coated surface is turned into a signal by an enzyme label.
Turning to `COc1cccc(CC2CCN(C(=O)c3ccc(C(=O)NC4CCN(Cc5ccc(C#N)cc5)CC4)nc3)CC2)c1` [Compound 147, N-(1-(4-cyanobenzyl)piperidin-4-yl)-5-(4-(3-methoxybenzyl)piperidine-1-carbonyl)picolinamide], the EC50 (usually the concentration giving half of the maximal effect) was under 500 nM.

On to `Cc1cc(CN2CCN(C(=O)c3ccc(C(=O)NC4CCN(Cc5ccccc5)CC4)nc3)CC2)no1` [Compound 85, N-(1-benzylpiperidin-4-yl)-5-(4-((5-methylisoxazol-3-yl)methyl)piperazine-1-carbonyl)picolinamide], for which the EC50 was 1000 to 5000 nM.

`O=C(NC1CCN(C(=O)c2ccccc2)CC1)c1ccc(C(=O)N2CCN(Cc3ccc(F)cc3)CC2)cn1` [Compound 8, N-(1-(benzoyl)piperidin-4-yl)-5-(4-(4-fluorobenzyl)piperazine-1-carbonyl)picolinamide] showed a concentration giving a half-maximal response (EC50) of under 500 nM.

Compound `O=C(NC1CCN(Cc2ccccc2)CC1)c1ccc(C(=O)N2CCN(c3ccccc3)CC2)cn1` [Compound 97, N-(1-benzylpiperidin-4-yl)-5-(4-phenylpiperazine-1-carbonyl)picolinamide] gave an EC50 of 1000 to 5000 nM.

In the case of `N#Cc1ccc(O[C@H]2CC[C@@H](NC(=O)c3ccc(C(=O)N4CCC(C(=O)c5ccc(N6CCCC6)cc5)CC4)nc3)CC2)cc1` [Compound 442, N-((cis)-4-(4-cyanophenoxy)cyclohexyl)-6-(4-(4-(pyrrolidin-1-yl)benzoyl)piperidine-1-carbonyl)nicotinamide], the EC50 is under 500 nM.

Turning to `CS(=O)(=O)c1ccc(OC2CCN(C(=O)c3cnc(C(=O)Nc4ccc(Oc5ccc(F)cc5)nc4)cn3)CC2)cc1` [Compound 207, N-(6-(4-fluorophenoxy)pyridin-3-yl)-5-(4-(4-(methylsulfonyl)phenoxy)piperidine-1-carbonyl)pyrazine-2-carboxamide], the EC50 was under 500 nM.

On to `O=C(Nc1ccc(C(=O)N2CCN(Cc3ccc(F)cc3)CC2)cn1)c1ccc(Oc2ccc(F)cc2)nc1` [Compound 177, N-(5-(4-(4-fluorobenzyl)piperazine-1-carbonyl)pyridin-2-yl)-6-(4-fluorophenoxy) nicotinamide], for which the concentration for a half-maximal effect (EC50) was in the range of 1000 to 5000 nM.

Turning to `N#Cc1ccc(CN2CCC(NC(=O)c3ccc(N4CCCC(Oc5ccc(C#N)cc5)C4)cn3)CC2)cc1` (centres unmarked) [Compound 265, N-(1-(4-cyanobenzyl)piperidin-4-yl)-5-(3-(4-cyanophenoxy)piperidin-1-yl)picolinamide], the EC50 lay in the range of 1000 to 5000 nM.

`O=C(Nc1ccc(Br)cc1)c1ccc(C(=O)N2CCN(Cc3ccc(F)cc3)CC2)cn1` [Compound 28, N-(4-bromophenyl)-5-(4-(4-fluorobenzyl)piperazine-1-carbonyl)picolinamide] had a half-maximal effective concentration (EC50) of 500 to 1000 nM.

`O=C(Nc1ccc(Oc2ccc(F)cc2)nc1)c1cnc(C(=O)N2CCC(Oc3ccc(C(F)(F)F)cc3)CC2)cn1` [Compound 205, N-(6-(4-fluorophenoxy)pyridin-3-yl)-5-(4-(4-(trifluoromethyl)phenoxy)piperidine-1-carbonyl)pyrazine-2-carboxamide] showed an EC50 of under 500 nM.

Consider `N#Cc1ccc(CN2CCC(NC(=O)c3ccc(C(=O)N4CCC(C(=O)c5ccc(F)cc5)CC4)cn3)CC2)cc1` [Compound 136, N-(1-(4-cyanobenzyl)piperidin-4-yl)-5-(4-(4-fluorobenzoyl)piperidine-1-carbonyl)picolinamide], for which the EC50 is under 500 nM.

As for `COc1ccc(C(=O)C2CCN(C(=O)c3ccc(C(=O)N[C@H]4CCN(Cc5ccc(C#N)cc5)C[C@@H]4F)cn3)CC2)cc1` [Compound 453, N-((3S,4S)-1-(4-cyanobenzyl)-3-fluoropiperidin-4-yl)-6-(4-(4-methoxybenzoyl)piperidine-1-carbonyl)nicotinamide], the EC50 was under 500 nM.

`N#Cc1ccc(CN2CCC(NC(=O)c3ccc(C(=O)N4CCC(Oc5ccc(NS(=O)(=O)C6CC6)cc5)CC4)nc3)CC2)cc1` [Compound 448, N-(1-(4-cyanobenzyl)piperidin-4-yl)-6-(4-(4-(cyclopropanesulfonamido)phenoxy)piperidine-1-carbonyl)nicotinamide] gave an EC50 of 1000 to 5000 nM.

In the case of `CS(=O)(=O)Nc1ccc(CN2CCC(NC(=O)c3ccc(C(=O)N4CCC(Oc5ccc(C#N)cc5)CC4)nc3)CC2)cc1` [Compound 217, 6-(4-(4-cyanophenoxy)piperidine-1-carbonyl)-N-(1-(4-(methylsulfonamido)benzyl)piperidin-4-yl)nicotinamide], the concentration for a half-maximal effect (EC50) is over 10000 nM.

Compound `N#Cc1ccc(O[C@H]2CC[C@H](NC(=O)c3ccc(C(=O)N4CCC(Oc5ccc(F)cc5)CC4)cn3)CC2)cc1` [Compound 169, N-((trans)-4-(4-cyanophenoxy)cyclohexyl)-5-(4-(4-fluorophenoxy)piperidine-1-carbonyl)picolinamide] displayed an EC50 of 500 to 1000 nM.

`CC(=O)c1ccc(OC2CCN(C(=O)c3ccc(C(=O)Nc4ccc(Oc5ccc(F)cc5)nc4)nc3)CC2)cc1` [Compound 359, 5-(4-(4-acetylphenoxy)piperidine-1-carbonyl)-N-(6-(4-fluorophenoxy)pyridin-3-yl)picolinamide]: the half-maximal effective concentration (EC50) was under 500 nM.

Compound `CSc1ccc(C(=O)C2CCN(C(=O)c3ccc(C(=O)NC4CCN(Cc5ccc(C#N)cc5)CC4)nc3)CC2)cc1` [Compound 372, N-(1-(4-cyanobenzyl)piperidin-4-yl)-5-(4-(4-(methylthio)benzoyl)piperidine-1-carbonyl)picolinamide] came in with an EC50 of under 500 nM.

Consider `O=C(NC1CCN(Cc2cc(F)cc(F)c2)CC1)c1ccc(C(=O)N2CCC(Oc3ccc(C(F)(F)F)cc3)CC2)cn1` [Compound 294, N-(1-(3,5-difluorobenzyl)piperidin-4-yl)-5-(4-(4-(trifluoromethyl)phenoxy)piperidine-1-carbonyl)picolinamide], for which the EC50 was under 500 nM.

In turn, `O=C(NC1CCN(Cc2ccc(OC(F)(F)F)cc2)CC1)c1ccc(C(=O)N2CCC(Oc3ccc(S(=O)(=O)C4CC4)cc3)CC2)nc1` [Compound 249, 6-(4-(4-(cyclopropylsulfonyl)phenoxy)piperidine-1-carbonyl)-N-(1-(4-(trifluoromethoxy)benzyl)piperidin-4-yl)nicotinamide] registered an EC50 of under 500 nM.

`N#Cc1ccc(OC2CCN(C(=O)c3ccc(C(=O)N[C@H]4CC[C@@H](Oc5ccc(C#N)cc5)CC4)cn3)CC2)cc1` [Compound 321, N-((cis)-4-(4-cyanophenoxy)cyclohexyl)-6-(4-(4-cyanophenoxy)piperidine-1-carbonyl)nicotinamide]: the EC50 was under 500 nM.

Take `CS(=O)(=O)c1ccc(C(=O)C2CCN(C(=O)c3ccc(C(=O)NC4CCN(Cc5ccc(F)cc5)CC4)nc3)CC2)cc1` [Compound 225, N-(1-(4-fluorobenzyl)piperidin-4-yl)-5-(4-(4-(methylsulfonyl)benzoyl)piperidine-1-carbonyl)picolinamide]: the EC50 was under 500 nM.

As to `N#Cc1ccc(CN2CCC(NC(=O)c3ccc(C(=O)N4CCN(c5ccc(S(=O)(=O)C6CC6)cc5)CC4)cn3)CC2)cc1` [Compound 256, N-(1-(4-cyanobenzyl)piperidin-4-yl)-5-(4-(4-(cyclopropylsulfonyl)phenyl)piperazine-1-carbonyl)picolinamide], the EC50 was under 500 nM.

`COc1ccc(CN2CCC(NC(=O)c3ccc(C(=O)N4CCC(Oc5ccc(C(=O)C6CC6)cc5)CC4)nc3)CC2)cc1` [Compound 458, 6-(4-(4-(cyclopropanecarbonyl)phenoxy)piperidine-1-carbonyl)-N-(1-(4-methoxybenzyl)piperidin-4-yl)nicotinamide] came in with a concentration giving a half-maximal response (EC50) of under 500 nM.

`N#Cc1ccc(CN2CCC(NC(=O)c3ccc(C(=O)N4CCC(Oc5ccc(S(=O)(=O)C(F)(F)F)cc5)CC4)cn3)CC2)cc1` [Compound 415, N-(1-(4-cyanobenzyl)piperidin-4-yl)-5-(4-(4-(trifluoromethylsulfonyl)phenoxy)piperidine-1-carbonyl)picolinamide] yielded an EC50 of under 500 nM.

Take `COc1ccc(C(=O)C2CCN(C(=O)c3ccc(C(=O)N[C@H]4CCN(Cc5ccc(C#N)cc5)C[C@H]4F)cn3)CC2)cc1` (relative stereo) [Compound 454, N-((cis)-1-(4-cyanobenzyl)-3-fluoropiperidin-4-yl)-6-(4-(4-methoxybenzoyl)piperidine-1-carbonyl)nicotinamide]: the EC50 was under 500 nM.

As to `N#Cc1ccc(CN2CCC(NC(=O)c3ccc(C(=O)N4CCC(C(=O)c5ccc(F)cc5F)CC4)nc3)CC2)cc1` [Compound 346, N-(1-(4-cyanobenzyl)piperidin-4-yl)-6-(4-(2,4-difluorobenzoyl)piperidine-1-carbonyl)nicotinamide], the 50% effective concentration (EC50) was under 500 nM.

Compound `CC(=O)Nc1cccc(OC2CCN(C(=O)c3ccc(C(=O)NC4CCN(Cc5ccc(C#N)cc5)CC4)cn3)CC2)c1` [Compound 411, 6-(4-(3-acetamidophenoxy)piperidine-1-carbonyl)-N-(1-(4-cyanobenzyl)piperidin-4-yl)nicotinamide] returned an EC50 of 1000 to 5000 nM.

Take `COc1ccc(CN2CCN(C(=O)c3ccc(C(=O)NC4CCN(Cc5ccc(C#N)cc5)CC4)nc3)CC2)cc1` [Compound 101, N-(1-(4-cyanobenzyl)piperidin-4-yl)-5-(4-(4-methoxybenzyl)piperazine-1-carbonyl)picolinamide]: the concentration for a half-maximal effect (EC50) was under 500 nM.

In turn, `O=C(NC1CCN(Cc2ccccc2)CC1)c1ccc(C(=O)N2CCN(c3ccncc3)CC2)cn1` [Compound 96, N-(1-benzylpiperidin-4-yl)-5-(4-(pyridin-4-yl)piperazine-1-carbonyl)picolinamide] came in with an EC50 of over 10000 nM.

Take `COc1ccc(CN2CCC(NC(=O)c3ccc(C(=O)N4CCC(Oc5ccc(NC(C)=O)cc5)CC4)nc3)CC2)cc1` [Compound 407, 6-(4-(4-acetamidophenoxy)piperidine-1-carbonyl)-N-(1-(4-methoxybenzyl)piperidin-4-yl)nicotinamide]: the EC50 was under 500 nM.

Take `N#Cc1ccc(CN2CCC(NC(=O)c3ccc(C(=O)N4CCC(C(=O)c5ccc(N6CCOCC6)cc5)CC4)cn3)CC2)cc1` [Compound 376, N-(1-(4-cyanobenzyl)piperidin-4-yl)-5-(4-(4-morpholinobenzoyl)piperidine-1-carbonyl)picolinamide]: the EC50 is under 500 nM.

Regarding `N#Cc1ccc(CN2CCC(NC(=O)c3ccc(N4CCN(Cc5ccccc5)CC4)cn3)CC2)cc1` [Compound 110, 5-(4-benzylpiperazin-1-yl)-N-(1-(4-cyanobenzyl)piperidin-4-yl)picolinamide], the EC50 fell in the range of 1000 to 5000 nM.
